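1) Cells in 96-well plates. 2) Compound, 48 h, 5 concentrations. 3) Linear interpolation between surrounding doses. 4) Unreached endpoint = highest concentration. GI50 marks 50% less growth. TGI marks complete inhibition of growth.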
Tests used:
Assay in all cases: NCI anticancer screen, dose series, 48 h
U251 CNS = tested on: U251 CNS
UACC-257 melanoma = tested on: UACC-257 melanoma
SF-268 CNS = tested on: SF-268 CNS
UACC-62 melanoma = tested on: UACC-62 melanoma
MALME-3M melanoma = tested on: MALME-3M melanoma
EKVX NSCLC = tested on: EKVX NSCLC
OVCAR-4 ovarian = tested on: OVCAR-4 ovarian
LOX IMVI melanoma = tested on: LOX IMVI melanoma
DMS 273 small cell lung = tested on: DMS 273 small cell lung
DLD-1 colon = tested on: DLD-1 colon
SNB-78 CNS = tested on: SNB-78 CNS

SMILES | GI50 (U251 CNS) | TGI (U251 CNS) | GI50 (UACC-257 melanoma) | TGI (UACC-257 melanoma) | GI50 (SF-268 CNS) | TGI (SF-268 CNS) | GI50 (UACC-62 melanoma) | TGI (UACC-62 melanoma) | GI50 (MALME-3M melanoma) | TGI (MALME-3M melanoma) | GI50 (EKVX NSCLC) | TGI (EKVX NSCLC) | GI50 (OVCAR-4 ovarian) | GI50 (LOX IMVI melanoma) | TGI (LOX IMVI melanoma) | TGI (OVCAR-4 ovarian) | TGI (DMS 273 small cell lung) | TGI (DLD-1 colon) | TGI (SNB-78 CNS)
COc1ccc(C(=O)N/N=C/c2ccc(O)cc2O)cc1Nc1ccnc(C(F)(F)F)c1 | 0.401 µM | 29.4 µM | 1.69 µM | 16.9 µM | 0.299 µM | 16.7 µM | 0.448 µM | 11.4 µM | 0.891 µM | > 26.7 µM | 0.482 µM | 27.9 µM | 0.27 µM | 0.454 µM | 16.4 µM |  |  |  | 
Cc1[nH]nc(C(=O)Nc2n[nH]c3ccccc23)c1[N+](=O)[O-] | > 100 µM | > 100 µM | > 100 µM | > 100 µM | > 100 µM | > 100 µM | > 93.7 µM | > 100 µM | > 100 µM | > 100 µM | > 100 µM | > 100 µM | > 100 µM | > 100 µM | > 100 µM | > 100 µM |  |  | 
CN(C)CCNC(=O)c1cccc2c1nc(-c1ccccn1)c1ccccc12 |  | 34.5 µM |  | 30.4 µM |  | 61.6 µM |  | 31.4 µM |  |  |  | 65.2 µM |  |  |  | 42.2 µM | 29.9 µM | 31 µM | 67.9 µM
O=C1C(=O)c2c(nc3ncccn23)-c2ccccc21 | 0.316 µM | 1.16 µM | 0.175 µM | 0.339 µM | 0.339 µM | 1.13 µM | 0.177 µM | 0.326 µM | 0.169 µM | 0.307 µM | 0.396 µM | 0.954 µM | 0.161 µM | 0.15 µM | 0.339 µM | 0.297 µM |  |  | 
Clc1ccc(-c2cn(-c3ccccc3)c(-c3ccccc3)n2)c(Cl)c1 | 1.25 µM | 3.83 µM | > 22.8 µM | > 50 µM | 1.78 µM | > 11 µM | > 20.2 µM | > 50 µM | 1.32 µM | 6.92 µM | > 18.5 µM | > 50 µM | 0.884 µM | > 14 µM | > 50 µM | 1.81 µM |  |  | 
N#CC(=S)Nc1ccc(F)cc1 |  | > 100 µM |  | > 100 µM |  | > 100 µM |  | > 100 µM |  | > 100 µM |  | > 100 µM |  |  | > 100 µM | > 100 µM |  |  | 
COc1ccc2c(c1)C(=O)c1c-2n(CCCCl)c(=O)c2cc(N(C)C)ccc12 | 23.1 µM | 84.2 µM | 43 µM | > 100 µM | 33.3 µM | > 100 µM | 41 µM | > 100 µM | 63.8 µM | > 100 µM | > 100 µM | > 100 µM | 62.9 µM | 99.1 µM | > 100 µM | > 100 µM |  |  | 
C=C1C(=O)O[C@H]2[C@H]1CC/C(COC(=O)C(=O)c1cn(C)c3ccc(OC)cc13)=C\CC[C@@]1(C)O[C@@H]21 | 6.58 µM | 10.1 µM | 4.82 µM | 9.73 µM | 5.71 µM | 12.5 µM | 2.8 µM | 7.08 µM | 5.62 µM | 9.91 µM | 8.19 µM | 16.3 µM | 5.2 µM | 1.57 µM | 2.62 µM | 25.5 µM |  |  | 

From PubChem BioAssay (NCI)
